The target of assay [1] is T1, Aurora A (Homo sapiens, UniProt O14965).
T1 construct: histidine tag (N); made in house; host or cells: Escherichia coli BL21-CodonPlus (DE3)-RIL
T1 sequence (O14965 1-403): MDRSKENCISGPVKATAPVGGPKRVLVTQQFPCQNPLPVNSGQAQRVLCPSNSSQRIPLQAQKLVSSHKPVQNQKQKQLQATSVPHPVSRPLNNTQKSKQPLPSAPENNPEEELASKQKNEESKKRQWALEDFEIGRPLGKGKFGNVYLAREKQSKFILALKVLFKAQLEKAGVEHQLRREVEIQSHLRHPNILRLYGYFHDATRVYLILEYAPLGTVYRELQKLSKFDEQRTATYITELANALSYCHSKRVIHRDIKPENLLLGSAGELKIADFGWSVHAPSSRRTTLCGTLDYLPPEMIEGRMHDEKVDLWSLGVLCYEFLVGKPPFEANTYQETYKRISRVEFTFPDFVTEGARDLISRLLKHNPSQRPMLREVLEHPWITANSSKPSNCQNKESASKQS
Nature of the assay: Aurora A inhibitory action (Kemptide substrate, [γ-33P]ATP, 20 μM ATP). The format is biochemical. To be noted: 30° C., 20 minutes. The source says:
cDNA of Aurora A having histidine tag fused at the amino terminal was integrated into an expression vector, which was then highly expressed in Escherichia coli BL21-CodonPlus (DE3)-RIL cells. The Escherichia coli cells were recovered and solubilized, and then the histidine-tagged Aurora A protein was adsorbed onto a nickel chelate column and eluted from the column with imidazole. The active fraction was desalted with a desalting column to give a pure enzyme.
For measurement of the activity of Aurora A, the substrate used was Kemptide (Leu-Arg-Arg-Ala-Ser-Leu-Gly) (SEQ.ID.NO.: 1), a synthetic peptide purchased from Sigma-Aldrich, Inc. [Certificate of analysis (Upstate, Inc.)].
Reaction was conducted by a partial modification of a method by Upstate, Inc. [Kinase Profiler™ Assay Protocols]. The amount of the reaction liquid was 21.1 μL, and the composition of the reaction buffer (R2 buffer) was 50 mM Tris-hydrochloride buffer (pH 7.4)/15 mM magnesium acetate/0.2 mM ethylenediamine-N,N,N′,N′-tetraacetate (EDTA). To this, purified Aurora A, 100 μM of a substrate peptide, 20 μM of unlabeled adenosine triphosphate (ATP) and 0.5 μCi of [γ-^33P] labeled ATP (2,500 Ci/mmole or more) were added, and the mixture was reacted at 30° C. for 20 minutes. Then, 10 μL of 350 mM phosphate buffer was added to the reaction system to stop the reaction. The substrate peptide was adsorbed on a P81 paper filter 96-well plate and then washed with 130 mM phosphate buffer for several times. The radiation activity of the peptide was measured with a liquid scintillation counter. The [γ-^33P] labeled ATP was purchased from Amersham Biosciences Co., Ltd.
(§1) The compound to be tested was added to the reaction system such that a dilution series of the compound in dimethylsulfoxide was first prepared, and 1.1 μL of this solution was added. A control was provided by adding 1.1 μL of DMSO to the reaction system.

In assay [2] the target is T2, Aurora B (Homo sapiens, UniProt Q96GD4).
T2 construct: histidine tag (N); made in house; host or cells: Escherichia coli BL21-CodonPlus (DE3)-RIL
Kind of assay: Aurora B inhibitory action (Kemptide substrate, [γ-33P]ATP, 100 μM ATP). The format is biochemical. To be noted: 30° C., 20 minutes.
Excerpt: cDNA of Aurora B having histidine tag fused at the amino terminal was integrated into an expression vector, which was then highly expressed in Escherichia coli BL21-CodonPlus (DE3)-RIL cells. The Escherichia coli cells were recovered and solubilized, and then the histidine-tagged Aurora A protein was adsorbed onto a nickel chelate column and eluted from the column with imidazole. The active fraction was desalted with a desalting column to give a pure enzyme.
For measurement of the activity of Aurora B, the substrate used was Kemptide (Leu-Arg-Arg-Ala-Ser-Leu-Gly) (SEQ.ID.NO.: 1), a synthetic peptide purchased from Sigma-Aldrich, Inc. [Certificate of analysis (Upstate, Inc.)].
Reaction was conducted by a partial modification of the method of activity measurement for Aurora A. The amount of the reaction liquid was 21.1 μL, and the composition of the reaction buffer (R2 buffer) was 50 mM Tris-hydrochloride buffer (pH 7.4)/15 mM magnesium acetate/0.2 mM ethylenediamine-N,N,N′,N′-tetraacetate (EDTA). To this, purified Aurora B, 100 μM of a substrate peptide, 100 μM of unlabeled adenosine triphosphate (ATP) and 1 μCi of [γ-^33P] labeled ATP (2,500 Ci/mmole or more) were added, and the mixture was reacted at 30° C. for 20 minutes. Then, 10 μL of 350 mM phosphate buffer was added to the reaction system to stop the reaction. The substrate peptide was adsorbed on a P81 paper filter 96-well plate and then washed with 130 mM phosphate buffer for several times. The radiation activity of the peptide was measured with a liquid scintillation counter. The [γ-^33P] labeled ATP was purchased from Amersham Biosciences Co., Ltd.
as §1

For assay [3], the system named is Human cervical cancer cells (HeLa S3). Kind of assay: Cell growth inhibitory effect, WST-8 method. It is filed as cell-based. To be noted: 72 h, HeLa S3, three days incubation. Here is the method: Fetal calf serum (FCS) was purchased from Moregate Biotech, and DMEM medium was purchased from Invitrogen Corp. WST-8 was purchased from Kishida Chemical Co., Ltd.
(§2) Human cervical cancer cells (HeLa S3) were obtained from the American Type Culture Collection (ATCC).
Cells were suspended in a DMEM medium containing 10% FCS, and the cell suspension was dispensed to a 96-well plastic plate at a rate of 750 cells/100 microliters per well. The plate was incubated overnight in 5% CO2-95% air at 37° C. A drug was subjected to graded dilution in dimethylsulfoxide and further diluted with a DMEM medium containing 10% FCS. Then, the dilution was dispensed to the plate on which cells had been disseminated, at a rate of 100 microliters per well. The plate was incubated for further three days in 5% CO2-95% air at 37° C. Cell growth after incubation was measured by the WST-8 method (H. Tominaga, et al., Anal. Commun., 36, 47-50 (1999)). Here, the WST-8 method refers to a method in which 20 microliters of a WST-8 reagent solution is added to each well, incubation is conducted at 37° C. for 45 minutes, the plate is stirred, and the amount of formazan produced is measured by a calorimetric method to determine the inhibitory rate of the drug. The concentration for 50% growth inhibition (EC50, μM) of the compound was determined.

Assay [4] shares this test system. Nature of the assay: Effect by combined use with paclitaxel in cells, WST-8 method. The format is cell-based. The note with it: three days, DMSO = 0%; for Cell growth inhibitory effect by combined administration of paclitaxel and the compound of Example (%): HeLa S3, compound 1.0 μM + paclitaxel 1 nM; for inhibition at 1 µM: HeLa S3, compound 1.0 μM alone, read-out: Cell growth inhibitory effect by sole administration of the compound of Example (%). Here is the method:
Fetal calf serum (FCS) was purchased from Moregate Biotech, DMEM medium from Invitrogen Corp., paclitaxel (tradename: Taxol) from Sigma-Aldrich, Inc., and WST-8 from Kishida Chemical Co., Ltd.
as §2
Cells were suspended in a DMEM medium containing 10% FCS, and the cell suspension was dispensed to two 96-well plastic plates at a rate of 750 cells/100 microliters per well. The plates were incubated overnight in 5% CO2-95% air at 37° C. A drug was subjected to graded dilution in dimethylsulfoxide and further diluted with […] a DMEM medium containing 10% FCS and also containing 2 nM paclitaxel. Then, the dilutions were each dispensed to one of the plates on which cells had been disseminated, at a rate of 100 microliters per well. The final concentration of paclitaxel at this stage was 1 nM. Also, the concentrations in the case of sole administration of the compound according to the invention were 0.03, 0.1, 0.3, 1 and 3 μM. The plates were incubated for further three days in 5% CO2-95% air at 37° C. Cell growth after incubation was measured by the WST-8 method (H. Tominaga, et al., Anal. Commun., 36, 47-50 (1999)). Here, the WST-8 method refers to a method in which 20 microliters of a WST-8 reagent solution is added to each well, incubation is conducted at 37° C. for 45 minutes, the plate is stirred, and the amount of formazan produced is measured by a colorimetric method to determine the inhibitory rate of the drug. The growth inhibitory effects of paclitaxel and of the compound according to the invention were determined, with the value obtained in sole treatment of DMSO being defined as 0%.
(In general: Tetrazolium dyes change colour on reduction, which living cells bring about.)

Molecules are shown by their SMILES. Where “and” joins values, the source holds several entries; their conditions need not be identical. Equal entries are not always repeated. Structures can show the parent of a compound that is named as a salt.

The source of these data is patent US8101621B2, “Aminopyridine derivatives having aurora a selective inhibitory action” (MSD K.K., priority 2006, dated 2012).

T2 sequence (Q96GD4 whole entry): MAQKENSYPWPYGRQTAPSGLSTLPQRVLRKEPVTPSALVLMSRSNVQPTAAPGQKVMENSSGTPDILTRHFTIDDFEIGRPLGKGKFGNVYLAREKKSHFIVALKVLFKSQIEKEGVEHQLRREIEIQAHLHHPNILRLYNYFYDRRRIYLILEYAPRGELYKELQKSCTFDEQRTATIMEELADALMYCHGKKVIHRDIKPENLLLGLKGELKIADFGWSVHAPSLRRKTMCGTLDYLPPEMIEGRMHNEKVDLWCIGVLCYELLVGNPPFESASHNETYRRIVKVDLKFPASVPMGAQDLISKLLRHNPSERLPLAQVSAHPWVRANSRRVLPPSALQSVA

A word on the IC50: it is the concentration that inhibits the measured activity by half. On to `Cc1cc(Nc2cc[nH]n2)nc(CN2C[C@@H]3C[C@H]2CN3C(=O)c2cccc(Cl)c2F)n1` [Example 1, 2-(((1S,4S)-5-(3-chloro-2-fluorobenzoyl)-2,5-diazabicyclo[2.2.1]hept-2-yl)methyl)-6-methyl-N-1H-pyrazol-3-ylpyrimidine-4-amine], for which the results for the 50% inhibitory concentration (IC50) in assay [1], in assay [2] and in assay [3] were 3 nM, 640 nM and 5080 nM, respectively. For the same compound, the “Cell growth inhibitory effect by combined administration of paclitaxel and the compound of Example (%)” value (from here on “Cell growth inhibitory effect … of Example (%)”) in assay [4] is 83.0%. For the same compound, the inhibition at 1 µM in assay [4] (Homo sapiens, HeLa S3, 72 h) came to 14.3%.

As for `O=C(c1cccc(C(F)(F)F)c1F)N1C[C@@H]2C[C@H]1CN2Cc1nccc(Nc2cc[nH]n2)n1` [Example 6, 2-(((1S,4S)-5-(2-fluoro-3-(trifluoromethyl)benzoyl)-2,5-diazabicyclo[2.2.1]hept-2-yl)methyl)-N-1H-pyrazol-3-ylpyrimidine-4-amine], the figures for the IC50 in assay [1], in assay [2] and in assay [3] were 6.1 nM, 2800 nM and 9750 nM, respectively. The “Cell growth inhibitory effect … of Example (%)” value in assay [4] is recorded as 71.7%. Moreover, the inhibition at 1 µM in assay [4] (Homo sapiens, HeLa S3, 72 h) came to 1.7%.

Consider `Cc1cc(Nc2cc(C)[nH]n2)nc(CN2C[C@@H]3C[C@H]2CN3C(=O)c2cccc(Cl)c2F)n1` [Example 7], for which the IC50 in assay [1] was 5.7 nM; in assay [2], 300 nM.

`Cc1cc(Nc2ccnc(CN3C[C@@H]4C[C@H]3CN4C(=O)c3cccc(Cl)c3F)n2)n[nH]1` [Example 9, 2-(((1S,4S)-5-(3-chloro-2-fluorobenzoyl)-2,5-diazabicyclo[2.2.1]hept-2-yl)methyl)-N-(5-methyl-1H-pyrazol-3-yl)pyrimidine-4-amine]: the IC50 in assay [1] is 9.8 nM; in assay [2], 690 nM. The “Cell growth inhibitory effect … of Example (%)” value in assay [4] was found to be 79.5%. In assay [4] (Homo sapiens, HeLa S3, 72 h), the inhibition at 1 µM amounted to 12.4%.

With `O=C(c1cccc(Cl)c1Cl)N1C[C@@H]2C[C@H]1CN2Cc1cncc(Nc2cc[nH]n2)n1` [Example 10, 6-(((1S,4S)-5-(2,3-dichlorobenzoyl)-2,5-diazabicyclo[2.2.1]hept-2-yl)methyl)-N-1H-pyrazol-3-ylpyrazine-2-amine trifluoroacetate], the IC50 in assay [1] amounted to 7.1 nM; in assay [2], 2100 nM; in assay [3], 4600 nM. In addition, the “Cell growth inhibitory effect … of Example (%)” value in assay [4] amounted to 84.8%. In addition, in assay [4] (Homo sapiens, HeLa S3, 72 h), the inhibition at 1 µM turned out to be 8.9%.

For `O=C(c1cccc(C(F)(F)F)c1Cl)N1C[C@H]2C[C@@H]1CN2Cc1cncc(Nc2cc[nH]n2)n1` [Example 12], the IC50 is 4.8 nM in assay [1] and 2300 nM in assay [2].

On to `CN(C)C(=O)c1cc(CN2C[C@@H]3C[C@H]2CN3C(=O)c2cccc(C(F)(F)F)c2F)nc(Nc2nccs2)c1` [Example 22, 2-(((1S,4S)-5-(2-fluoro-3-(trifluoromethyl)benzoyl)-2,5-diazabicyclo[2.2.1]hept-2-yl)methyl)-N,N-dimethyl-6-(1,3-thiazol-2-ylamino)isonicotinamide trifluoroacetate], for which the IC50 was determined as 1.4 nM in assay [1] and 590 nM in assay [2].

In the case of `CN(C)C(=O)c1cc(CN2C[C@@H]3C[C@H]2CN3C(=O)c2cccc(Cl)c2C#N)nc(Nc2nccs2)c1` [Example 23, 2-(((1S,4S)-5-(3-chloro-2-cyanobenzoyl)-2,5-diazabicyclo[2.2.1]hept-2-yl)methyl)-N,N-dimethyl-6-(1,3-thiazol-2-ylamino)isonicotinamide trifluoroacetate], the IC50 came to 1.4 nM in assay [1] and 330 nM in assay [2].

As for `CN(C)C(=O)c1cc(CN2C[C@@H]3C[C@H]2CN3C(=O)c2cccc(C(F)(F)F)c2C#N)nc(Nc2nccs2)c1` [Example 24, 2-(((1S,4S)-5-(2-cyano-3-(trifluoromethyl)benzoyl)-2,5-diazabicyclo[2.2.1]hept-2-yl)methyl)-N,N-dimethyl-6-(1,3-thiazol-2-ylamino)isonicotinamide], the IC50 in assay [1] was 1.1 nM; in assay [2], 190 nM.

On to `CC(=O)O[C@H]1C(=O)[C@@]2(C)[C@H]([C@H](OC(=O)c3ccccc3)[C@]3(O)C[C@H](OC(=O)[C@H](O)[C@@H](NC(=O)c4ccccc4)c4ccccc4)C(C)=C1C3(C)C)[C@]1(OC(C)=O)CO[C@@H]1C[C@@H]2O` [paclitaxel, reference compound], for which the “Cell growth inhibitory effect by sole administration of paclitaxel (1 nM) (%)” value in assay [4] (HeLa S3, paclitaxel 1 nM alone) was 47.1% and 51.4%. Moreover, the inhibition at 0.001 µM in assay [4] (Homo sapiens, HeLa S3, 72 h, HeLa S3, paclitaxel 1 nM alone, read-out: Cell growth inhibitory effect by sole administration of paclitaxel (1 nM) (%)) is 47.2%.
